Results: patent publication US7906491B2 (Univisitair Medisch Centrum Utrecht, priority 2002, dated 2011)

Assays:
Epac = molecular target: T1, Epac (Homo sapiens, UniProt O95398); test: Relative affinity for Epac (cAMP = 1), in vitro; format: binding; settings: relative to cAMP = 1
T1 sequence (O95398 1-923): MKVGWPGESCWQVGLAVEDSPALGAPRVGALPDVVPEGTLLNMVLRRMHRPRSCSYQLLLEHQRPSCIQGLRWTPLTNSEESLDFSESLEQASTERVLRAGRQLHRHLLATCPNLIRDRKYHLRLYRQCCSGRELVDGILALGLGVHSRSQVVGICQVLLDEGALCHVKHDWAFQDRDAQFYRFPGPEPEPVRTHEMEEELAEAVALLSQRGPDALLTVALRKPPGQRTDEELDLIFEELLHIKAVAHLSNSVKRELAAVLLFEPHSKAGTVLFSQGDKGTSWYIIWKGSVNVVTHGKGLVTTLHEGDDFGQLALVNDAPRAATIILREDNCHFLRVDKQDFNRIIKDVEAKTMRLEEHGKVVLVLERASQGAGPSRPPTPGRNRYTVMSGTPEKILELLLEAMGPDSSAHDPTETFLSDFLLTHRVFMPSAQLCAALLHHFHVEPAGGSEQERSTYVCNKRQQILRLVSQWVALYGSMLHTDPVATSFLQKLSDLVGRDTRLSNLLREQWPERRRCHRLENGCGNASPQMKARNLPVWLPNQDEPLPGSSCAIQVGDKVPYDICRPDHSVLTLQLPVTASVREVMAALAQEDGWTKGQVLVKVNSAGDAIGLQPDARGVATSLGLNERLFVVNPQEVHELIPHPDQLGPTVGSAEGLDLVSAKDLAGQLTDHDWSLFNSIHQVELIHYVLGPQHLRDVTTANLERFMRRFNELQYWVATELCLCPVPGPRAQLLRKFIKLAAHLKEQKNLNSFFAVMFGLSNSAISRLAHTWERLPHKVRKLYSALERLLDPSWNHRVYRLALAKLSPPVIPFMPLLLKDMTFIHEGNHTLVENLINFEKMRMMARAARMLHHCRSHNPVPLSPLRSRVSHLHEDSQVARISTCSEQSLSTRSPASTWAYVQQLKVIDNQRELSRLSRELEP

CREB = CREB phosphorylation (read-out for PKA) in NIH3T3-A14-Epac1 cells; format: cell-based; settings: concentration as high as 100 μM
Procedure: (§1) Upper panel: NIH3T3-A14-Epac1 cells were treated for 15 min with 8-Br-cAMP, and cell lysates were analyzed for activation of Rap1 and phosphorylation of CREB. Lower panel: NIH3T3-A14-Epac1 cells were treated in duplicate for 15 min with increasing concentrations of 8-pCPT-2′-O-Me-cAMP. Cells were lysed and equal amounts of cell lysate were incubated with precoupled GST-RalGDSRBD and Rap1 was assayed by immunoblotting with Rap1 antibody.
(§2) Therefore, 8-CPT-2′-O-Me-cAMP was tested in NIH3T3-A14-Epac1 cells for the activation of Epac, using Rap1 as a read-out, and of PKA, using phosphorylation of the common PKA substrate CREB 29 as a read-out.
Antibodies against phosphorylated CREB (directed against phosphorylated Serl33) were obtained from Cell Signalling (Beverly, Mass., USA), and antibodies against K-Rev/Rap1 and polyclonal anti-HA were obtained from Santa Cruz Biotechnology (Santa Cruz, Calif., USA). The following inhibitors and stimuli were used at concentrations indicated, unless stated otherwise: RGD peptide (100 μM) and H-89 (10 μM) was obtained from Biomol Research Laboratories Inc. (Plymouth Meeting, Pa., USA). 8-Br-cAMP (1 mM) was obtained from BIOLOG Life Science Institute (Bremen, Germany). TPA (12-O-tetradecanoylphorbol-13-acetate) was obtained from Sigma (Steinheim, Germany) and was used at a concentration of 100 ng/ml. […]

Rap1 = Rap1 activation assay (read-out for Epac) in NIH3T3-A14-Epac1 cells; format: cell-based; settings: 15 min
Procedure: as §1, §2
NIH3T3-A14 cells, stably expressing Epac1, were grown in DMEM with 10% fetal calf serum and 2 μg/ml puromycin. NIH-OVCAR3 (Ovcar3) cells were maintained in RPMI with 10% fetal calf serum. Transient transfection of Ovcar3 cells was performed using the FuGENE 6 transfection reagent (Roche Diagnostics, Mannheim, Germany) according to the manufacturer's procedures, using 6 μg total DNA including a CMV-luciferase plasmid (0.2 μg).
Rap activation assays were performed as described previously (16-18). Briefly, cells were lysed in lysis buffer containing 10% glycerol, 1% Nonidet P-40, 50 mM Tris-Cl pH7.5, 200 mM NaCl, 2mM MgCl2, 1 μM leupeptin, 0.1 μM aprotinin, 5 mM NaF, 1 mM NaVO3. Lysates were clarified by centrifugation and incubated with GST-tagged RalGDS-RBD pre-coupled to glutathione beads to specifically pull down the GTP-bound forms of Rap1. Samples were incubated for 1 hr at 4° C. while tumbling. Beads were washed four times in lysis buffer, and the remaining fluid was removed with an insulin syringe. Proteins were eluted with Laemmli sample buffer and analyzed by sodium dodecyl sulphate (SDS)-polyacrylamide gel electrophoresis and Western blotting using Rap1 antibodies. As a control, Rap1 levels in whole cell lysates were determined.

[1] = test system: type II holoenzyme of PKA (PKAII); test: In vitro activation of cAMP-dependent protein kinase, type II holoenzyme (kemptide substrate); format: biochemical; settings: compared to cAMP, FIG. 5
Procedure: Cyclic AMP dependent protein kinase I and II were reconstituted from isolated subunits and assayed for kinase activity using […] kemptide as substrate, as described previously (15).

## CO[C@@H]1[C@@H]2OP(=O)(O)OC[C@H]2O[C@H]1n1c(Sc2ccc(Cl)cc2)nc2c(N)ncnc21 [Compound I-007, 8-(4-chloro-phenylthio)-2′-O-methyladenosine-3′,5′-cyclic monophosphate]
Epac
  Relative affinity CAMP = 1 Epac: 4.6
CREB
  CREB phosphorylation: did not induce CREB phosphorylation
Rap1; 8-Br-cAMP 1 mM
  activation of Rap1: induced the activation of Rap1 only
Rap1; dose-response
  concentration at which Rap1 is already activated: 10 µM
[1]
  ability to activate the type II holoenzyme of PKA: greatly impaired
